Assays:
[1] = system: Toronto 2 SARS CoV-1; test: organism not typed; assay type: cell-based; details: Vero C1008, 72 h, read-out: SARS-1 EC50 (μM) VeroE6
[2] = system: USA_WA1/2020 SARS CoV-2; test: microbe, parasite or virus in culture; assay type: cell-based; details: Severe acute respiratory syndrome coronavirus 2, Vero C1008, 72 h, read-out: SARS-2 EC50 (μM) VeroE6
[3] = in vitro; details: African green monkey

Q: Which EC50 [1] does the source give for `O=C(Nc1ccc(C(=O)Nc2cccc(C#Cc3ccccn3)c2)cc1)c1ccc(O)cc1` [Compound 28, 4-Hydroxy-N-(4-((3-(pyridin-2-ylethynyl)phenyl)carbamoyl)phenyl)benzamide] here?
A: 17.1 µM

Q: What about the EC50 [2] of the same molecule?
A: > 30 µM

Q: What about the CC50 [3] of the same molecule?
A: > 30 µM

Q: Which results are given for `CC(=O)Nc1ccc(C(=O)Nc2cccc(C#Cc3ccccn3)c2)cc1O` [Compound 30, 4-Acetamido-3-hydroxy-N-(3-(pyridin-2-ylethynyl)phenyl)benzamide]?
A: EC50 [1]: 6.18 µM; EC50 [2]: 4.37 µM; CC50 [3]: > 30 µM

Q: For `CC(=O)Nc1ccc(C(=O)Nc2cccc(C#Cc3ccccn3)c2)nn1` [Compound 31, 6-Acetamido-N-(3-(pyridin-2-ylethynyl)phenyl)pyridazine-3-carboxamide], which EC50 [1] is on record?
A: > 30 µM

Q: And the EC50 [2]?
A: > 30 µM

Q: What about the CC50 [3] of the same molecule?
A: > 30 µM

Q: With `O=C(Nc1cccc(C#Cc2ccccn2)c1)c1ccc(N2CCN(C3CCC3)CC2=O)cc1` [Compound 32, 4-(4-Cyclobutyl-2-oxopiperazin-1-yl)-N-(3-(pyridin-2-ylethynyl)phenyl)benzamide] as the molecule, how does the EC50 [1] read?
A: 6.08 µM

Q: What about the EC50 [2] of the same molecule?
A: 5.02 µM

Q: What about the CC50 [3] of the same molecule?
A: 23.1 µM

Q: Which EC50 [1] does the source give for `O=C(Nc1cccc(C#Cc2ccccn2)c1)c1ccc(N2CCN(CC3CCC3)CC2=O)cc1` [Compound 33, 4-(4-(Cyclobutylmethyl)-2-oxopiperazin-1-yl)-N-(3-(pyridin-2-ylethynyl)phenyl)benzamide] here?
A: 4.62 µM

Q: And the EC50 [2]?
A: > 30 µM

Q: What about the CC50 [3] of the same molecule?
A: > 30 µM

Q: Which EC50 [1] does the source give for `Cc1nc2ccc(C(=O)Nc3cccc(C#Cc4ccccn4)c3)cc2o1` [Compound 34, 2-Methyl-N-(3-(pyridin-2-ylethynyl)phenyl)benzo[d]oxazole-6-carboxamide] here?
A: 2.01 µM

Q: What about the EC50 [2] of the same molecule?
A: 2.11 µM

Q: What about the CC50 [3] of the same molecule?
A: 26.1 µM

Q: With `O=C(Nc1cccc(C#Cc2ccccn2)c1)c1ccc(N2CC3(CCC3)C2=O)cc1` [Compound 35, 4-(1-Oxo-2-azaspiro[3.3]heptan-2-yl)-N-(3-(pyridin-2-ylethynyl)phenyl)benzamide] as the molecule, how does the EC50 [1] read?
A: 0.43 µM

Q: And the EC50 [2]?
A: 1.64 µM

Q: What about the CC50 [3] of the same molecule?
A: > 30 µM

Q: What does the source list for `O=C(Nc1cccc(C#Cc2ccccn2)c1)c1ccc(N2CCCC3(CCC3)C2=O)cc1` [Compound 36, 4-(5-Oxo-6-Azaspiro[3.5]nonan-6-yl)-N-(3-(pyridin-2-ylethynyl)phenyl)benzamide]?
A: EC50 [1]: 0.35 µM; EC50 [2]: 0.49 µM; CC50 [3]: 15.3 µM

Q: For `O=C(Nc1cccc(C#Cc2ccccn2)c1)c1ccc(C(=O)NC2CC2)cc1` [Compound 37, N^1-cyclopropyl-N^4-(3-(pyridin-2-ylethynyl)phenyl)terephthalamide], which EC50 [1] is on record?
A: 2.12 µM

Q: What about the EC50 [2] of the same molecule?
A: 4 µM

Q: And the CC50 [3]?
A: > 30 µM

Q: Which EC50 [1] does the source give for `O=C(Nc1cccc(C#Cc2ccccn2)c1)c1ccc(C(=O)NC2CCC2)cc1` [Compound 38, N^1-cyclobutyl-N^4-(3-(pyridin-2-ylethynyl)phenyl)terephthalamide] here?
A: 0.75 µM

Q: What about the EC50 [2] of the same molecule?
A: 1.64 µM

Q: And the CC50 [3]?
A: > 30 µM

Q: Which EC50 [1] does the source give for `O=C(Nc1cccc(C#Cc2ccccn2)c1)c1ccc(C(=O)NC2CCCC2)cc1` [Compound 39, N^1-cyclopentyl-N^4-(3-(pyridin-2-ylethynyl)phenyl)terephthalamide] here?
A: 0.53 µM

Q: What about the EC50 [2] of the same molecule?
A: 1 µM

Q: And the CC50 [3]?
A: > 40 µM

Q: Which EC50 [1] does the source give for `O=C(Nc1cccc(C#Cc2ccccn2)c1)c1ccc(-c2nnco2)cc1` [Compound 41, 4-(1,3,4-Oxadiazol-2-yl)-N-(3-(pyridin-2-ylethynyl)phenyl)benzamide] here?
A: 0.93 µM

Q: And the EC50 [2]?
A: 1.54 µM

Q: What about the CC50 [3] of the same molecule?
A: > 30 µM

Q: With `CN(C)c1ccc(C(=O)Nc2cccc(C#Cc3ccccn3)c2)cc1` [Compound 42, 4-(Dimethylamino)-N-(3-(pyridin-2-ylethynyl)phenyl)benzamide] as the molecule, how does the EC50 [1] read?
A: 1.57 µM

Q: And the EC50 [2]?
A: 6.52 µM

Q: What about the CC50 [3] of the same molecule?
A: > 30 µM

Q: For `N#CC1(c2ccc(C(=O)Nc3cccc(C#Cc4ccccn4)c3)cc2)CC1` [Compound 45, 4-(1-Cyanocyclopropyl)-N-(3-(pyridin-2-ylethynyl)phenyl)benzamide], which EC50 [1] is on record?
A: 3.12 µM

Q: And the EC50 [2]?
A: 3.72 µM

Q: What about the CC50 [3] of the same molecule?
A: 20.8 µM

Q: Which results are given for `Cc1cc(C#Cc2ccccn2)nc(NC(=O)c2ccc3c(c2)CCC(=O)N3)c1` [Compound 47, N-(4-Methyl-6-(pyridin-2-ylethynyl)pyridin-2-yl)-2-oxo-1,2,3,4-tetrahydroquinoline-6-carboxamide]?
A: EC50 [1]: 5.51 µM; EC50 [2]: 6.29 µM; CC50 [3]: > 30 µM

Q: For `CC(=O)Nc1ccc(-c2nc3ccc(C#Cc4ccccn4)cc3[nH]2)cc1` [Compound 49, N-(4-(5-(Pyridin-2-ylethynyl)-1H-benzo[d]imidazol-2-yl)phenyl)acetamide], which EC50 [1] is on record?
A: > 30 µM

Q: And the EC50 [2]?
A: > 30 µM

Q: And the CC50 [3]?
A: > 30 µM

Q: For `COc1cc(C#Cc2ccccn2)cc(NC(=O)c2ccc3c(c2)CCCC(=O)N3)c1` [Compound 51, N-(3-Methoxy-5-(pyridin-2-ylethynyl)phenyl)-2-oxo-2,3,4,5-tetrahydro-1H-benzo[b]azepine-7-carboxamide], which EC50 [1] is on record?
A: 0.51 µM

Q: What about the EC50 [2] of the same molecule?
A: 0.52 µM

Q: And the CC50 [3]?
A: 12.2 µM

Q: Which results are given for `Nc1cc(C#Cc2ccccn2)cc(NC(=O)c2ccc(N3CCCCC3=O)cc2)c1` [Compound 52, N-(3-Amino-5-(pyridin-2-ylethynyl)phenyl)-4-(2-oxopiperidin-1-yl)benzamide]?
A: EC50 [1]: 26 µM; EC50 [2]: 26 µM; CC50 [3]: > 30 µM

Q: For `O=C(Nc1cc(C#Cc2ccccn2)cc(OCC2CC2)c1)c1ccc(N2CCCCC2=O)cc1` [Compound 53, N-(3-(Cyclopropylmethoxy)-5-(pyridin-2-ylethynyl)phenyl)-4-(2-oxopiperidin-1-yl)benzamide], which EC50 [1] is on record?
A: 0.062 µM

Q: What about the EC50 [2] of the same molecule?
A: 0.18 µM

Q: What about the CC50 [3] of the same molecule?
A: > 30 µM

Q: Which EC50 [1] does the source give for `CC(=O)Nc1ccc(NC(=O)c2cccc(C#Cc3ccccn3)c2)cc1` [Compound 55, N-(4-acetamidophenyl)-3-(pyridin-2-ylethynyl)benzamide] here?
A: 2.82 µM

Q: And the EC50 [2]?
A: 4.18 µM

Q: What about the CC50 [3] of the same molecule?
A: > 30 µM

Q: Which results are given for `CCN(C(C)=O)c1ccc(NC(=O)c2cccc(C#Cc3ccccn3)c2)cc1` [Compound 56, N-(4-(N-ethylacetamido)phenyl)-3-(pyridin-2-ylethynyl)benzamide]?
A: EC50 [1]: 1.11 µM; EC50 [2]: 1.58 µM; CC50 [3]: > 30 µM

Q: With `O=C(Nc1ccc(N2CCC2=O)cc1)c1cccc(C#Cc2ccccn2)c1` [Compound 57, N-(4-(2-oxoazetidin-1-yl)phenyl)-3-(pyridin-2-ylethynyl)benzamide] as the molecule, how does the EC50 [1] read?
A: 1.74 µM

Q: And the EC50 [2]?
A: 4.01 µM

Q: And the CC50 [3]?
A: > 30 µM

Q: With `O=C(Nc1ccc(NC(=O)N2CCC2)cc1)c1cccc(C#Cc2ccccn2)c1` [Compound 60, N-(4-(3-(pyridin-2-ylethynyl)benzamido)phenyl)azetidine-1-carboxamide] as the molecule, how does the EC50 [1] read?
A: 3.93 µM

Q: And the EC50 [2]?
A: 7.75 µM

Q: What about the CC50 [3] of the same molecule?
A: > 30 µM

Q: What does the source list for `CC1(NC(=O)c2ccc(NC(=O)c3cccc(C#Cc4ccccn4)c3)cc2)CC1` [Compound 61, N-(4-((1-methylcyclopropyl)carbamoyl)phenyl)-3-(pyridin-2-ylethynyl)benzamide]?
A: EC50 [1]: > 30 µM; EC50 [2]: 0.71 µM; CC50 [3]: > 30 µM

Q: With `O=C(Nc1ccc(C(=O)NC2CCCC2)cc1)c1cccc(C#Cc2ccccn2)c1` [Compound 62, N-(4-(cyclopentylcarbamoyl)phenyl)-3-(pyridin-2-ylethynyl)benzamide] as the molecule, how does the EC50 [1] read?
A: > 30 µM

Q: What about the EC50 [2] of the same molecule?
A: 0.48 µM

Q: What about the CC50 [3] of the same molecule?
A: > 30 µM

Q: Which EC50 [1] does the source give for `COC(=O)c1ccc(NC(=O)c2cccc(C#Cc3ccccn3)c2)cc1` [Compound 63, Methyl 4-(3-(pyridin-2-ylethynyl)benzamido)benzoate] here?
A: 0.43 µM

Q: What about the EC50 [2] of the same molecule?
A: 0.55 µM

Q: What about the CC50 [3] of the same molecule?
A: > 30 µM
